The source of these data is patent US20020026053A1, “Novel 3-(substituted) -2- indolinones compounds and use thereof as inhibitors of protein kinase activity” (priority 1997, published 2002).

One experiment deals with T1, EGFR (Homo sapiens, UniProt P00533).
T1 construct: endogenous in cells; host or cells: A431 cells (lysate, captured with SUMO1 anti-EGFR antibody)
Description: Biochemical EGFR Assay. Set-up: concentration or dose not given beside the values. An outline of the steps:
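EGFR from A431 lysate was captured on anti-EGFR-coated wells and preincubated 30 min with compound (diluted 1:10 in TBS) at room temperature. After ATP/MnCl2 phosphorylation for 5 min, the reaction was stopped with EDTA. Phosphotyrosine was detected by ELISA (anti-phosphotyrosine, peroxidase conjugate, ABTS) at 410 nm.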

A further experiment deals with PDGF-R. Description: PDGF-R Assay (cellular ELISA, U1242 cells). The arrangement: concentration or dose not given beside the values. It counts as cell-based. The method, boiled down: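 U1242 cells seeded in 0.5% serum, serum-starved, then exposed to compound for 2 hr at 37°C before 5–10 min ligand stimulation and lysis in HNTG. Lysate captured on receptor-antibody-coated plates; phosphotyrosine detected with polyclonal anti-pTyr, goat anti-rabbit IgG and ABTS/H2O2, A410 (ref 630 nm), versus untreated cells.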

T1 sequence (P00533 25-1210): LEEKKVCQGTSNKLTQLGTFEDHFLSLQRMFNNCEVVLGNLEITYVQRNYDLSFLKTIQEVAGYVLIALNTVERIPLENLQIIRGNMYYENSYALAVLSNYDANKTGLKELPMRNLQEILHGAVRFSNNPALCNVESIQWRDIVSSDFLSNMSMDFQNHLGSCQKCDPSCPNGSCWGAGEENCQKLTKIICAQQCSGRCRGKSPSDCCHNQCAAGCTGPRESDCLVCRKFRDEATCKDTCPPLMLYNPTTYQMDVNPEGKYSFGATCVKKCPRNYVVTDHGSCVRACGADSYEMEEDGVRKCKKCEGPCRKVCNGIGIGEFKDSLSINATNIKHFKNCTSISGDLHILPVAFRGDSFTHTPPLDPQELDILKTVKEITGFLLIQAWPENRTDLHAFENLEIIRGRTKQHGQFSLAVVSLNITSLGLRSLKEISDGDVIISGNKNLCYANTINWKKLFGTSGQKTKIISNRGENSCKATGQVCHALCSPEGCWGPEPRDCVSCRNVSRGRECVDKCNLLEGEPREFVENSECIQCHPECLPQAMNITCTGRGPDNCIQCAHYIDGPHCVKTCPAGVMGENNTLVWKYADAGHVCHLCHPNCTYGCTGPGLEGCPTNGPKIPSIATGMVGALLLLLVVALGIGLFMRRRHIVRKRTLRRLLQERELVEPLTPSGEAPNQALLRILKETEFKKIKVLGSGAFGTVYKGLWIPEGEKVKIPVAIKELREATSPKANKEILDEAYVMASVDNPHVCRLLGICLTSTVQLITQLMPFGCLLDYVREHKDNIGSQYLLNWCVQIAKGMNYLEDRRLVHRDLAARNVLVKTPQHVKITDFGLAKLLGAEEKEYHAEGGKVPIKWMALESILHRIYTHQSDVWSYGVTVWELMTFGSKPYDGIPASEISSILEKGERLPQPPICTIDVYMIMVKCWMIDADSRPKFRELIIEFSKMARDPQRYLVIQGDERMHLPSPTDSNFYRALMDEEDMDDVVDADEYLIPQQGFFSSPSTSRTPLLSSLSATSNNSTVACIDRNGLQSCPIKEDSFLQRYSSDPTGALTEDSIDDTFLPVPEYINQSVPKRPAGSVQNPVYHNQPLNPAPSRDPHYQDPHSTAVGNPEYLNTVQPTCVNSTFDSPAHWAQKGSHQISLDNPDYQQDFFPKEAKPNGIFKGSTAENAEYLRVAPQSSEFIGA

Regarding `Cc1c(Br)cc(Br)c2c1C(=Cc1ccc(O)cc1)C(=O)N2` [10719/H07], on EGFR, the “Biochem EGFR % Inhibition (P.167)” value was −2.8%.

In the case of `Cc1c(Br)cc(Br)c2c1C(=Cc1ccc(N(C)C)cc1)C(=O)N2` [10719/H08], on EGFR, the “Biochem EGFR % Inhibition (P.167)” value is on record as 2.9%.

Consider `Cc1c(Br)cc(Br)c2c1C(=Cc1ccc(F)cc1Cl)C(=O)N2` [10719/H09], for which, on EGFR, the “Biochem EGFR % Inhibition (P.167)” value is listed as −33.5%.

For the compound `Cc1c(Br)cc(Br)c2c1C(=Cc1cccc([N+](=O)[O-])c1)C(=O)N2` [10719/H10], the “Biochem EGFR % Inhibition (P.167)” value at EGFR is 14.6%.

`Cc1c(Br)cc(Br)c2c1C(=Cc1ccc(F)cc1C(F)(F)F)C(=O)N2` [10719/H11]: the “Biochem EGFR % Inhibition (P.167)” value at EGFR was −12.0%.

Take `Cc1c(Br)cc(Br)c2c1C(=Cc1c(F)cc(F)cc1F)C(=O)N2` [10720/H02]: the “Biochem EGFR % Inhibition (P.167)” value at EGFR is listed as 17.0%.

In the case of `COc1cc(O)ccc1C=C1C(=O)Nc2c(Br)cc(Br)c(C)c21` [10720/H03], the “Biochem EGFR % Inhibition (P.167)” value at EGFR is −13.9%.

Turning to `N#Cc1ccccc1C=C1C(=O)Nc2ccc(CCCl)cc21` [10735/G07], the “Biochem EGFR % Inhibition (P.167)” value on EGFR amounted to 4.6%. The “PDGF Kinase % Inhibition (P.119)” value in the experiment with PDGF-R turned out to be 12.6%.

For the compound `O=C1Nc2ccc(CCCl)cc2C1=Cc1c(F)cccc1F` [10735/G08], on EGFR, the “Biochem EGFR % Inhibition (P.167)” value worked out at 1.6%. For the same compound, in the experiment with PDGF-R, the “PDGF Kinase % Inhibition (P.119)” value came out at 9.8%.

Regarding `O=C1Nc2ccc(CCCl)cc2C1=Cc1cccc2ccccc12` [10735/G09], on EGFR, the “Biochem EGFR % Inhibition (P.167)” value came to 19.8%. The “PDGF Kinase % Inhibition (P.119)” value in the experiment on PDGF-R came out at 2.2%.

On to `O=C1Nc2ccc(CCCl)cc2C1=Cc1ccc(Cl)cc1Cl` [10735/G10], for which the “Biochem EGFR % Inhibition (P.167)” value on EGFR is listed as 4.5%. Besides, the “PDGF Kinase % Inhibition (P.119)” value with PDGF-R is −8.8%.

Turning to `O=C1Nc2ccc(CCCl)cc2C1=Cc1ccc(-c2ccccc2)cc1` [10735/G11], the “Biochem EGFR % Inhibition (P.167)” value at EGFR is listed as 2.9%. The “PDGF Kinase % Inhibition (P.119)” value in the experiment on PDGF-R is −5.3%.

Consider `Cc1ccccc1C=C1C(=O)Nc2c(Br)cc(Br)c(C)c21` [10735/H02], for which the “Biochem EGFR % Inhibition (P.167)” value on EGFR is 3.6%. Moreover, the “PDGF Kinase % Inhibition (P.119)” value in the experiment on PDGF-R is listed as −4.7%.

Take `Cc1c(Br)cc(Br)c2c1C(=Cc1ccc(F)c(F)c1)C(=O)N2` [10735/H03]: the “Biochem EGFR % Inhibition (P.167)” value on EGFR was −1.0%. The “PDGF Kinase % Inhibition (P.119)” value in the experiment on PDGF-R is 1.2%.

With `Cc1c(Br)cc(Br)c2c1C(=Cc1cc(F)cc(F)c1)C(=O)N2` [10735/H04], the “Biochem EGFR % Inhibition (P.167)” value at EGFR is −9.3%. Besides, the “PDGF Kinase % Inhibition (P.119)” value in the experiment on PDGF-R was determined as 1.2%.

As to `Cc1c(Br)cc(Br)c2c1C(=Cc1cccc(C(F)(F)F)c1)C(=O)N2` [10735/H05], the “Biochem EGFR % Inhibition (P.167)” value at EGFR is reported as −0.3%. Besides, the “PDGF Kinase % Inhibition (P.119)” value in the experiment on PDGF-R worked out at 9.1%.

With `Cc1c(Br)cc(Br)c2c1C(=Cc1cc(C(F)(F)F)cc(C(F)(F)F)c1)C(=O)N2` [10735/H06], the “Biochem EGFR % Inhibition (P.167)” value at EGFR is on record as −14.2%. Also, the “PDGF Kinase % Inhibition (P.119)” value in the experiment on PDGF-R was determined as 6.4%.

`Cc1c(Br)cc(Br)c2c1C(=Cc1ccccc1C#N)C(=O)N2` [10735/H07]: the “Biochem EGFR % Inhibition (P.167)” value on EGFR is 3.8%. Also, the “PDGF Kinase % Inhibition (P.119)” value in the experiment with PDGF-R is −0.9%.

With `Cc1c(Br)cc(Br)c2c1C(=Cc1c(F)cccc1F)C(=O)N2` [10735/H08], the “Biochem EGFR % Inhibition (P.167)” value at EGFR is listed as 6.8%. For the same compound, the “PDGF Kinase % Inhibition (P.119)” value in the experiment on PDGF-R was −2.6%.

Regarding `Cc1c(Br)cc(Br)c2c1C(=Cc1cccc3ccccc13)C(=O)N2` [10735/H09], on EGFR, the “Biochem EGFR % Inhibition (P.167)” value was −10.7%. Moreover, the “PDGF Kinase % Inhibition (P.119)” value in the experiment with PDGF-R is 6.4%.

Turning to `Cc1c(Br)cc(Br)c2c1C(=Cc1ccc(Cl)cc1Cl)C(=O)N2` [10735/H10], the “Biochem EGFR % Inhibition (P.167)” value on EGFR is reported as −16.3%. In addition, in the experiment on PDGF-R, the “PDGF Kinase % Inhibition (P.119)” value is given as −0.2%.

For the compound `Cc1c(Br)cc(Br)c2c1C(=Cc1ccc(-c3ccccc3)cc1)C(=O)N2` [10735/H11], the “Biochem EGFR % Inhibition (P.167)” value on EGFR was −4.2%. Besides, the “PDGF Kinase % Inhibition (P.119)” value with PDGF-R came to 1.9%.

Take `O=C1Nc2c(Br)cc(Br)cc2C1=Cc1ccc(Cl)cc1` [10736/A02]: the “Biochem EGFR % Inhibition (P.167)” value at EGFR is listed as 7.7%. The “PDGF Kinase % Inhibition (P.119)” value in the experiment on PDGF-R stood at 24.2%.

Regarding `O=C1Nc2c(Br)cc(Br)cc2C1=Cc1ccccc1C(F)(F)F` [10736/A03], at EGFR, the “Biochem EGFR % Inhibition (P.167)” value is reported as 24.2%. In addition, the “PDGF Kinase % Inhibition (P.119)” value in the experiment with PDGF-R stood at 31.6%.

Regarding `Cc1cccc(C=C2C(=O)Nc3c(Br)cc(Br)cc32)c1` [10736/A04], the “Biochem EGFR % Inhibition (P.167)” value on EGFR was 14.1%. In the experiment on PDGF-R, the “PDGF Kinase % Inhibition (P.119)” value is listed as 13.2%.

As for `Cc1ccc(C=C2C(=O)Nc3c(Br)cc(Br)cc32)cc1` [10736/A05], the “Biochem EGFR % Inhibition (P.167)” value at EGFR is 80.1%. In the experiment on PDGF-R, the “PDGF Kinase % Inhibition (P.119)” value was 8.4%.

As for `O=C1Nc2c(Br)cc(Br)cc2C1=Cc1cccc(Cl)c1` [10736/A06], the “Biochem EGFR % Inhibition (P.167)” value on EGFR is listed as 34.4%. The “PDGF Kinase % Inhibition (P.119)” value in the experiment on PDGF-R came out at 32.1%.

For the compound `O=C1Nc2c(Br)cc(Br)cc2C1=Cc1cccc(F)c1` [10736/A07], the “Biochem EGFR % Inhibition (P.167)” value at EGFR worked out at 30.2%. Further, in the experiment on PDGF-R, the “PDGF Kinase % Inhibition (P.119)” value came to 8.4%.

Regarding `O=C1Nc2c(Br)cc(Br)cc2C1=Cc1ccccc1F` [10736/A08], the “Biochem EGFR % Inhibition (P.167)” value at EGFR was determined as 27.6%. Also, in the experiment with PDGF-R, the “PDGF Kinase % Inhibition (P.119)” value is 11.0%.

As to `CCc1ccc(C=C2C(=O)Nc3c(Br)cc(Br)cc32)cc1` [10736/A09], the “Biochem EGFR % Inhibition (P.167)” value at EGFR stood at 20.0%. The “PDGF Kinase % Inhibition (P.119)” value with PDGF-R was −6.5%.

Regarding `COc1cccc(C=C2C(=O)Nc3c(Br)cc(Br)cc32)c1` [10736/A10], at EGFR, the “Biochem EGFR % Inhibition (P.167)” value is on record as −0.1%. In addition, in the experiment on PDGF-R, the “PDGF Kinase % Inhibition (P.119)” value is recorded as 5.8%.

In the case of `O=C1Nc2c(Br)cc(Br)cc2C1=Cc1ccccc1Cl` [10736/A11], at EGFR, the “Biochem EGFR % Inhibition (P.167)” value is −29.3%. The “PDGF Kinase % Inhibition (P.119)” value with PDGF-R was −5.6%.

Turning to `O=C1Nc2ccc(I)cc2C1=Cc1ccc(Cl)cc1` [10736/B02], on EGFR, the “Biochem EGFR % Inhibition (P.167)” value is −38.8%. Further, the “PDGF Kinase % Inhibition (P.119)” value with PDGF-R was −10.0%.

As for `O=C1Nc2ccc(I)cc2C1=Cc1ccccc1C(F)(F)F` [10736/B03], the “Biochem EGFR % Inhibition (P.167)” value at EGFR is reported as −51.7%. Besides, the “PDGF Kinase % Inhibition (P.119)” value in the experiment on PDGF-R was 63.2%.

As for `Cc1cccc(C=C2C(=O)Nc3ccc(I)cc32)c1` [10736/B04], the “Biochem EGFR % Inhibition (P.167)” value on EGFR is on record as −9.0%. Further, the “PDGF Kinase % Inhibition (P.119)” value in the experiment on PDGF-R was determined as 11.9%.

With `Cc1ccc(C=C2C(=O)Nc3ccc(I)cc32)cc1` [10736/B05], the “Biochem EGFR % Inhibition (P.167)” value at EGFR was found to be 14.9%. Moreover, in the experiment on PDGF-R, the “PDGF Kinase % Inhibition (P.119)” value is −3.0%.

On to `O=C1Nc2ccc(I)cc2C1=Cc1cccc(Cl)c1` [10736/B06], for which the “Biochem EGFR % Inhibition (P.167)” value on EGFR is 12.6%. Moreover, in the experiment with PDGF-R, the “PDGF Kinase % Inhibition (P.119)” value is 20.7%.

For `O=C1Nc2ccc(I)cc2C1=Cc1cccc(F)c1` [10736/B07], at EGFR, the “Biochem EGFR % Inhibition (P.167)” value is on record as 8.4%. Further, the “PDGF Kinase % Inhibition (P.119)” value in the experiment with PDGF-R worked out at 20.7%.

With `O=C1Nc2ccc(I)cc2C1=Cc1ccccc1F` [10736/B08], the “Biochem EGFR % Inhibition (P.167)” value at EGFR worked out at 8.4%. Besides, the “PDGF Kinase % Inhibition (P.119)” value with PDGF-R was −0.4%.

Take `CCc1ccc(C=C2C(=O)Nc3ccc(I)cc32)cc1` [10736/B09]: the “Biochem EGFR % Inhibition (P.167)” value at EGFR is on record as −3.5%. Further, the “PDGF Kinase % Inhibition (P.119)” value with PDGF-R was found to be 7.1%.

As for `COc1cccc(C=C2C(=O)Nc3ccc(I)cc32)c1` [10736/B10], on EGFR, the “Biochem EGFR % Inhibition (P.167)” value came out at 15.6%. The “PDGF Kinase % Inhibition (P.119)” value in the experiment on PDGF-R is recorded as 1.8%.

With `O=C1Nc2ccc(I)cc2C1=Cc1ccccc1Cl` [10736/B11], the “Biochem EGFR % Inhibition (P.167)” value on EGFR is −3.7%. In addition, the “PDGF Kinase % Inhibition (P.119)” value in the experiment with PDGF-R is given as −15.3%.
